# Reference: patent US20050032745A1, “Modified low molecular weight heparin that inhibits clot associated coagulation factors” (Hamilton Civic Hospitals Res Dev., Inc., priority 2000, published 2005)
# Assays:
# [1] = tested on: washed plasma clot; experiment: procoagulant activity of washed plasma clot incubated in unanticoagulated whole blood; format: biochemical
# Description: There is mounting evidence that both fibrin-bound thrombin and platelet-bound factor Xa contribute to the intense procoagulant activity of thrombi. […] Development of these agents requires an understanding of the mechanisms by which fibrin-bound IIa and platelet-bound factor Xa are protected from inactivation by heparin, LMWH and hirudin.
# [2] = tested on: injured rabbit aorta; experiment: rabbit arterial thrombosis prevention model (flow distal to 95% stenosis in injured aorta); format: in vivo; conditions: FIG. 11
# Method: This example illustrates a study comparing the efficacy and safety of the MLMWH compounds of the present invention, which are denoted in the figures as V21, LMWH, heparin and hirudin in a the rabbit arterial thrombosis prevention model. […] The arterial thrombosis prevention model was modified so that both efficacy and safety could be assessed in the same animal. Efficacy was assessed by measuring flow over 90 minutes distal to a 95% stenosis in an injured rabbit aorta, and safety was assessed by measuring blood loss over 30 minutes using the rabbit ear model. The four compounds were compared at three dosage levels. Each compound was administered as a bolus and infusion for 90 minutes. The doses listed in the following figures represent the bolus and infusion/60 minutes, administered for 90 minutes. The doses for heparin are shown as units/Kg, for LMWH and V21 as mg/Kg and for hirudin as mg/Kg. V21 has similar anti-Xa activity to LMWH and about twice the anti-IIa activity of LMWH. Thus, the specific activity of LMWH is 100 anti-Xa/mg and 30 anti-IIa units/mg. The specific activity of V21 is 100 anti-Xa units/mg and 60 anti-IIa units/mg, whereas the specific activity of heparin is about 150 anti-Xa units and 150 anti-IIa units/mg. The anticoagulants were compared in the following dosages. […]
Substance,blocking of the ability of a washed plasma clot to accelerate coagulation [1],response of the model to the antithrombotic effects [2]
"TAP: tick anticoagulant peptide, a direct inhibitor of factor Xa (YNRLCIKPRDWIDECDSNEGGERAYFRNGKGGCDSFWICPEDHTGADYYSSYRDCFNACI; UniProt P17726 1-60, looked up)",cannot be blocked,–
hirudin,cannot be blocked,very responsive
